Results as given in US20190315823A1, “SMALL CATIONIC ANTI-BIOFILM AND IDR PEPTIDES” (priority 2013, published 2019).
Ends that are not written are not given here.

How the values were obtained:
[1] = test system: methicillin resistant Staphylococcus aureus (MRSA) biofilm; conditions: approximate peptide concentration […] (around 3 μg/ml); compared to untreated samples
Procedure: Methods of assessment of anti-biofilm activity—Biofilm formation was initially analyzed using a static abiotic solid surface assay as described elsewhere (de la Fuente-Nunez et al., 2012). Dilutions (1/100) of overnight cultures were incubated in BM2 biofilm-adjusted medium [62 mM potassium phosphate buffer (pH 7), 7 mM (NH4)2SO4, 2 mM MgSO4, 10 μM FeSO4, 0.4% (wt/vol) glucose, 0.5% (wt/vol) Casamino Acids], or a nutrient medium such as Luria Broth, in polypropylene microtiter plates (Falcon, United States) in the absence (control) or presence of peptide. Peptide was added at time zero (prior to adding the diluted, overnight cultures) in varying concentrations, and the decrease in biofilm formation was recorded at 22-46 h for most bacteria. Planktonic cells were removed, biofilm cells adhering to the side of the tubes were stained with crystal violet, and absorbance at 595 nm was measured using a microtiter plate reader (Bio-Tek Instruments Inc., United States). Some peptides were screened against two Gram negative organisms, P. aeruginosa and K. pneumoniae using a Bioflux apparatus (AutoMate Scientific, Berkeley, Calif.; http://www.autom8.com/bioflux_biofilm.html), which allows for the high-throughput, real-time analysis of biofilms.

[2] = test system: human peripheral blood mononuclear cells (MCP-1); assay: SPOT-synthesized derivative screen: production of chemokine MCP-1; assay type: cell-based; conditions: Table 12, No LPS, human PBMC, peptide at ~18-24 μM; for MCP1: background subtracted 139 (HH2 derivatives), 170 (1018 derivatives), 242 (1002 and hybrid peptides) pg/ml
Procedure: Venous blood (20 ml) from healthy volunteers was collected in Vacutainer® collection tubes containing sodium heparin as an anticoagulant (Becton Dickinson, Mississauga, ON) in accordance with UBC ethical approval and guidelines. Blood was diluted 1:1 with complete RPMI 1640 medium and separated by centrifugation over a Ficoll-Paque® Plus (Amersham Biosciences, Piscataway, N.J., USA) density gradient. White blood cells were isolated from the buffy coat, washed twice in RPMI 1640 complete medium, and the number of peripheral blood mononuclear cells (PBMC) was determined by Trypan blue exclusion. PBMC (5×10^5) were seeded into 12-well tissue culture dishes (Falcon; Becton Dickinson) at 0.75 to 1×10^6 cells/ml at 37° C. in 5% CO2. The above conditions were chosen to mimic conditions for circulating blood monocytes entering tissues at the site of infection via extravasation.
Following incubation of the cells under various treatment regimens, the tissue culture supernatants were centrifuged at 1000×g for 5 min, then at 10,000×g for 2 min to obtain cell-free samples. Supernatants were aliquoted and then stored at −20° C. prior to assay for various chemokines by capture ELISA (eBioscience and BioSource International Inc., CA, USA respectively)

[3] = test system: LPS-stimulated human peripheral blood mononuclear cells (IL1-β); assay type: cell-based; conditions: Table 12, cells stimulated with 10 ng/ml LPS; for IL1β Production: LPS alone 1313 (HH2 derivatives), 1927 (1018 derivatives), 2455 (1002 and hybrid peptides) pg/ml
Procedure: LPS from P. aeruginosa strain H103 was highly purified free of proteins and lipids using the Darveau-Hancock method. Briefly, P. aeruginosa was grown overnight in LB broth at 37° C. Cells were collected and washed and the isolated LPS pellets were extracted with a 2:1 chloroform:methanol solution to remove contaminating lipids. Purified LPS samples were quantitated using an assay for the specific sugar 2-keto-3-deoxyoctosonic acid (KDO assay) and then resuspended in endotoxin-free water (Sigma-Aldrich).

| Substance | % Biofilm inhibition [1] [%] | Fold increase in MCP1 cf. untreated cells [2] | MCP1 [2] [pg/mL] | Fold change in IL1β relative to no peptide LPS stimulated cells [3] | IL1β Production [3] [pg/mL] |
| --- | --- | --- | --- | --- | --- |
| HH2-A6: single substituted HH2 peptide (VQLRIAVAVIRA-NH2) | 41 | 1.8 | 137 | 1.06 | 1391 |
| 1002-W7: single substituted 1002 peptide (VQRWLIWWRIRK-NH2) [Peptide 1002-W7] | 62 | 1.5 | 128.3 | 0.05 | 127 |
| HH2-R7: single substituted HH2 peptide (VQLRIRRAVIRA-NH2) | 3 | 1.6 | 98 | 1.49 | 1959 |
| HH2-V12: single substituted HH2 peptide (VQLRIRVAVIRV-NH2) | 65 | 33 | 5492 | 0.85 | 1119 |
| HH2-I11: single substituted HH2 peptide (VQLRIRVAVIIA-NH2) | 55 | 60 | 9977 | 1.07 | 1402 |
| 1002-Q5: single substituted 1002 peptide (VQRWQIVWRIRK-NH2) [Peptide 1002-Q5] | 48 | 0.9 | -36.2 | 0.07 | 180 |
| HH2-R1: single substituted HH2 peptide (RQLRIRVAVIRA-NH2) | 53 | 25 | 4034 | 1.50 | 1965 |
| 1018-V2: single substituted 1018 peptide (VVLIVAVRIWRR-NH2) [Peptide 1018-V2] | 67 | 1.3 | 56 | 0.12 | 159 |
| HH2-K12: single substituted HH2 peptide (VQLRIRVAVIRK-NH2) | 67 | 15 | 2329 | 0.92 | 1203 |
| 1018-A8: single substituted 1018 peptide (VRLIVAVAIWRR-NH2) [Peptide 1018-A8] | 60 | 3.7 | 460 | 0.10 | 127 |
| 1002-R1: single substituted 1002 peptide (RQRWLIVWRIRK-NH2) [Peptide 1002-R1] | 67 | 5.3 | 1043.2 | 0.05 | 127 |
| 1002-I3: single substituted 1002 peptide (VQIWLIVWRIRK-NH2) [Peptide 1002-I3] | 62 | 13.2 | 2953.7 | 0.05 | 127 |
| 1002-A12: single substituted 1002 peptide (VQRWLIVWRIRA-NH2) [Peptide 1002-A12] | 37 | 1.4 | 91.3 | 0.05 | 127 |
